Patent publication EP0075095A2, “Cephalosporin derivatives, process for their preparation, pharmaceutical compositions containing them and intermediates” (F. HOFFMANN-LA ROCHE & CO. Aktiengesellschaft, priority 1981, dated 1983)

Columns and labels:
[1] = tested on: Serratia marcescens; experiment: Oral antimicrobial activity in vivo in the mouse (curative dose CD50), Serratia marcescens infection; set-up: species or system Maus; settings: peroral dose at which 50% of tested mice survive, read-out: CD50, p.o.
From the text: (§1) Die orale antimikrobielle Wirksamkeit der erwähnten Produkte kann anhand von in-vivo-Versuchen an der Maus nachgewiesen werden. Im nachstehenden bedeutet die kurative Dosis (CD50, p.o., mg/kg) diejenige perorale Dosis, bei der 50% der getesteten Mäuse überleben.
(§2) Ergebnis (CD50, p.o., mg/kg)

[2] = tested on: Streptococcus pyogenes; experiment: Oral antimicrobial activity in vivo in the mouse (curative dose CD50), Streptococcus pyogenes infection; set-up: species or system Maus; settings: peroral dose at which 50% of tested mice survive, read-out: CD50, p.o.
From the text: as §1, §2

[3] = tested on: Escherichia coli; experiment: Oral antimicrobial activity in vivo in the mouse (curative dose CD50), Escherichia coli infection; set-up: species or system Maus; settings: peroral dose at which 50% of tested mice survive, read-out: CD50, p.o.
From the text: as §1, §2

[4] = tested on: Klebsiella pneumoniae; experiment: Oral antimicrobial activity in vivo in the mouse (curative dose CD50), Klebsiella pneumoniae infection; set-up: species or system Maus; settings: peroral dose at which 50% of tested mice survive, read-out: CD50, p.o.
From the text: as §1, §2

[5] = in vivo; settings: mouse, po

Row | SMILES | ED50 [1] [mg/kg] | ED50 [2] [mg/kg] | ED50 [3] [mg/kg] | ED50 [4] [mg/kg] | LD50 at 24 h [5] [mg/kg]
1 | CCn1nc(C(=O)OC)nc1SCC1=C(C(=O)OCOC(=O)C(C)(C)C)N2C(=O)[C@@H](NC(=O)/C(=N\OC)c3csc(N)n3)[C@H]2SC1 [Produkt C, Methylen-(6R,7R)-7-[(Z)-2-(2-Amino-4-thiazolyl)-2-(methoxyimino)acetamido]-3-[[[2-äthyl-5-(methoxycarbonyl)-2H-1,2,4-triazol-3-yl]thio]methyl]-8-oxo-5-thia-2-azabicyclo[4.2.0]oct-2-en-2-carboxylat-pivalat] | 2.54 | 0.53 |  |  | 
2 | CO/N=C(\C(=O)N[C@@H]1C(=O)N2C(C(=O)OCOC(=O)C(C)(C)C)=C(CSc3nc(C(=O)OC)nn3C)CS[C@H]12)c1csc(N)n1 [Produkt A] | 1.5 | 0.72 | 0.07 | 3.7 | > 5000
3 | CCCn1nc(C(=O)OC)nc1SCC1=C(C(=O)OCOC(=O)C(C)(C)C)N2C(=O)[C@@H](NC(=O)/C(=N\OC)c3csc(N)n3)[C@H]2SC1 [Produkt E] | 1.8 | 0.89 | 0.04 | 2.5 | > 5000
4 | CO/N=C(\C(=O)N[C@@H]1C(=O)N2C(C(=O)OCOC(=O)C(C)(C)C)=C(CSc3nc(C(=O)OC)nn3-c3ccccc3)CS[C@H]12)c1csc(N)n1 [Produkt F] | 5.8 | 1.5 |  | > 12 | > 5000
5 | CCOC(=O)c1nc(SCC2=C(C(=O)OCOC(=O)C(C)(C)C)N3C(=O)[C@@H](NC(=O)/C(=N\OC)c4csc(N)n4)[C@H]3SC2)n(C)n1 [Produkt B] | 0.8 | 2.1 |  |  | > 5000
6 | CO/N=C(\C(=O)N[C@@H]1C(=O)N2C(C(=O)OCOC(=O)C(C)(C)C)=C(CSc3nc(C(=O)OC)nn3CC(=O)OCOC(=O)C(C)(C)C)CS[C@H]12)c1csc(N)n1 [Produkt D, Methylen-(6R,7R)-7-[(Z)-2-(2-Amino-4-thiazolyl)-2-(methoxyimino)-acetamido]-3-[[[5-(methoxycarbonyl)-2-[[[(pivaloyloxy)methoxy]-carbonyl]methyl]-2H-1,2,4-triazol-3-yl]thio]-methyl]-8-oxo-5-thia-1-azabicyclo[4.2.0]oct-2-en-2-carboxylat-pivalat] | > 6 | 8.8 |  | 12.5 | > 5000
7 | CC1=C(C(=O)O)N2C(=O)[C@@H](NC(=O)[C@H](N)c3ccccc3)[C@H]2SC1 [Cephalexin, reference compound] | > 50 | 1.8 | 3.2 |  | 
